Laboratory results: patent US20260015451A1, “FOAMED-RESIN-FORMABLE COMPOSITION, POLYUREA-BASED RESIN FOAM BODY, AND POLYUREA-BASED RESIN FOAM BODY PRODUCTION METHOD” (MITSUBISHI GAS CHEMICAL COMPANY, INC., priority 2022, published 2026)

Assays:
[1] = Percentage increase of mass after standing in air (absorption of carbon dioxide); type: physicochemical; details: air environment at 23° C. and 50% RH for a week
Method: A cyclic polyamine compound, MXDA, was put in a container and left to stand in an air environment at 23° C. and 50% RH for a week. By doing so, MXDA and carbon dioxide in the air were reacted to give a reaction product of MXDA and carbon dioxide (carbonate of MXDA). At that stage, to suppress uneven reaction, the container in which the cyclic polyamine compound was placed was shaken as necessary so as not to leave unreacted MXDA. The water content in the resulting reaction product (carbonate of MXDA) was 0% by mass.
Next, the amount of increase of the mass of MXDA was measured, and the percentage increase of the mass of the cyclic polyamine compound was calculated by the following equation.
Percentage increase of mass of cyclic polyamine compound [% by mass]=100×amount of increase of mass of cyclic polyamine compound (g)/(initial mass of cyclic polyamine compound (g)[…])

[2] = Maximum carbon dioxide (CO2) release temperature by DSC; type: physicochemical; details: after 24 hours in air at 23° C. and 50% RH; heating rate 10° C./minute, nitrogen
Method: A carbon dioxide detector and a Petri dish were placed in an openable desiccator (inner dimension: 370 mm × 260 mm × 272 mm). Subsequently, the cyclic polyamine compound (5 mmol) was added to the Petri dish in the desiccator and the door was immediately closed to leave the cyclic polyamine compound to stand in the desiccator in an air environment at 23° C. and 50% RH for 24 hours. The initial concentration of carbon dioxide was adjusted to about 400 ppm.
Then the cyclic polyamine compound was taken out of the desiccator to give a cyclic polyamine compound with carbon dioxide absorbed. The maximum carbon dioxide release temperature of the cyclic polyamine compound with carbon dioxide absorbed was measured by subjecting the cyclic polyamine compound to DSC as described below. First, differential scanning calorimetry of the cyclic polyamine compound was performed under conditions of a temperature range of 23 to 250° C., a heating rate of 10° C./minute and a nitrogen atmosphere using a differential thermogravimeter (product name DTG-60 made by Shimadzu Corporation). The temperature at which the amount of heat absorbed due to the desorption of carbon dioxide was the maximum was calculated from the DSC curve obtained, and the temperature was determined as the maximum carbon dioxide release temperature of the cyclic polyamine compound.

## NCc1cccc(CN)c1 [MXDA, metaxylylenediamine]
[1]
  percentage increase of the mass: 24.1 % by mass
[2]
  maximum carbon dioxide (CO2) release temperature: 135.5 °C
